Source: publication PMC6461504 (ACS infectious diseases, 2019)
Read-outs that look alike come from different tables or passages of the source.

What was measured:
[1] = system: negatively supercoiled pBR322 DNA; test: DNA cleavage control without gyrase; details: 200 μM gepotidacin, 3 h incubation, no gyrase
[2] = target: T1, S. aureus gyrase (Staphylococcus aureus, UniProt P0A0K8+P20831)
[3] = target: T1, S. aureus gyrase; test: DNA cleavage competition assay, gepotidacin vs moxifloxacin; type: biochemical; details: 100 μM gepotidacin plus 25 μM moxifloxacin
[4] = target: S. aureus gyrase-DNA cleavage complexes (Staphylococcus aureus, UniProt P0A0K8+P20831); test: Stability; details: 5 μM gepotidacin, 20-fold dilution into buffer lacking divalent metal ion
Chain of S. aureus gyrase-DNA cleavage complexes (P20831 whole entry): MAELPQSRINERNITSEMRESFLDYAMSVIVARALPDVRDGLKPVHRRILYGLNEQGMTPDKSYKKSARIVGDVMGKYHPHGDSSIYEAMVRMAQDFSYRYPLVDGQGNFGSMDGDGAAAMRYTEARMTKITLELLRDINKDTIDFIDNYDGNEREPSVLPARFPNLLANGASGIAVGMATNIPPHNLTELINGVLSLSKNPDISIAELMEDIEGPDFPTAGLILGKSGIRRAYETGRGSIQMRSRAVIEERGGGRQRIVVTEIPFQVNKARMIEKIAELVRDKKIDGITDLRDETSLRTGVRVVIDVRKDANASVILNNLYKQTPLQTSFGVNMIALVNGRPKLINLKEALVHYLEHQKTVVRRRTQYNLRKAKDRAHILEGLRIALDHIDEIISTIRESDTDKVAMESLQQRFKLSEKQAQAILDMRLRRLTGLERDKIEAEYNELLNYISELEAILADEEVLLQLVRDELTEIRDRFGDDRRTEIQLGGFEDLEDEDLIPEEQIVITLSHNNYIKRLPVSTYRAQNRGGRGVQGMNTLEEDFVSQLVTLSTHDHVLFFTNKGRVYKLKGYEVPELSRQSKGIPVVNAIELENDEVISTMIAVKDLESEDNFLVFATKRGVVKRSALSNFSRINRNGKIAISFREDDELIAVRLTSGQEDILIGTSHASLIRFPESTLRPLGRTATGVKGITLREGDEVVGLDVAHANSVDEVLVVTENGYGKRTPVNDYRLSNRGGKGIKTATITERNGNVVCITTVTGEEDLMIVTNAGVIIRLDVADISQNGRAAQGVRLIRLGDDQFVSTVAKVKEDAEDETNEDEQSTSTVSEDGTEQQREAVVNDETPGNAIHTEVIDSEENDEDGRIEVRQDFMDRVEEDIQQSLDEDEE
Chain of S. aureus gyrase-DNA cleavage complexes (P0A0K8 whole entry): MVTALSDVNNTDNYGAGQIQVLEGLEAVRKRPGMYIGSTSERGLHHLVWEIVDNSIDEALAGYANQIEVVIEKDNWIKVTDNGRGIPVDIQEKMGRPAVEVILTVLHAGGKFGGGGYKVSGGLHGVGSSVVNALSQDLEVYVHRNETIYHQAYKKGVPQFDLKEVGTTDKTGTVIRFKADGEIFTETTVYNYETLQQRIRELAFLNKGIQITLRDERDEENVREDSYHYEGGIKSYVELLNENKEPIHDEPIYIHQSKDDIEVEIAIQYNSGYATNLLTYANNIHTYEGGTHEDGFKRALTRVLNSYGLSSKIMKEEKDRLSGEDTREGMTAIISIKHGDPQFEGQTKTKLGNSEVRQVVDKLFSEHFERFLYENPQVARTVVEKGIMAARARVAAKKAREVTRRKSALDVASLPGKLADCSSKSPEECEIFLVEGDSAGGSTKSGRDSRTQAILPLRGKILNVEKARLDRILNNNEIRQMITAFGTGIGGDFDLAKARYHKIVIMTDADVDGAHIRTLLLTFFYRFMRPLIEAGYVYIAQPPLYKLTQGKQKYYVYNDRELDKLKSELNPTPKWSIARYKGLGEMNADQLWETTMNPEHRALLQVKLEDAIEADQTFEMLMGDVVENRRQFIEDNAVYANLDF

T1 sequence (P0A0K8 whole entry): as above
T1 sequence (P20831 whole entry): as the sequence (P20831 whole entry) above

SMILES | DNA cleavage when gyrase was left out [1] | type of DNA breaks at high concentration ([2]; 200 μM, time course 6 times longer than standard) | gyrase-mediated double-stranded DNA cleavage ([2]; 1.5 mM ATP) | type of DNA breaks created ([2]; 5 or 200 μM, negatively supercoiled DNA) | effect on double-stranded DNA cleavage in the presence of Ca2+ ([2]; MgCl2 replaced by CaCl2, increasing gepotidacin concentrations) | gyrase-mediated double-stranded DNA breaks ([2]; high gepotidacin concentration, long cleavage times, or presence of ATP) | levels of single-stranded breaks, positively vs negatively supercoiled plasmid ([2]; lower with positively supercoiled plasmid) | single-stranded DNA breaks, share of the initial substrate ([2]; negatively supercoiled plasmid, low micromolar concentrations) | gyrase-mediated double-stranded DNA breaks ([2]; positively supercoiled DNA) | drop in levels of moxifloxacin-induced double-stranded breaks [3] | stability of gyrase-DNA cleavage complexes [4] [h] | fall in potency with positively vs negatively supercoiled substrates ([2]; double-stranded breaks)
O=c1ccc2ncc(=O)n3c2n1C[C@H]3CN1CCC(NCc2cc3c(cn2)OCCC3)CC1 [Gepotidacin] | no DNA cleavage was observed | only single-stranded breaks were observed | no double-stranded DNA cleavage was observed | all of the breaks created in the presence of gepotidacin were single-stranded | coordinate decrease in levels of double-stranded DNA cleavage | No double-stranded breaks were observed | ~ 2 fold | more than 30% | no double-stranded breaks were observed | ~ 95% | > 4 | 
COc1c(N2C[C@@H]3CCCN[C@@H]3C2)c(F)cc2c(=O)c(C(=O)O)cn(C3CC3)c12 [moxifloxacin, reference compound] |  |  |  |  |  |  |  |  |  |  |  | ~ 8 fold
